According to PubChem BioAssay AID274 (DTP/NCI, 2004):
Values joined by “and” are separate entries in the source; they are usually repeats but may differ in a detail not shown here. Identical values can stand only once. Inconclusive results and toxic doses are left out.

Tested on: BDF1 mice, Lewis lung carcinoma iv, survival T/C
Assay: NCI In Vivo Anticancer Drug Screen. Data for tumor model Lewis Lung Carcinoma (intravenous) in B6D2F1 (BDF1) mice
Details: endpoint: median survival time, higher = longer survival
Protocol: The antitumor activity of compounds was measured in mice bearing transplantable tumors. Survival or tumor size were measured and the results are expressed as the measurement made in the treated group (T) divided by the measurement made in the vehicle treated control group (C). The tumor model used in this assay is Lewis Lung Carcinoma (intravenous) in B6D2F1 (BDF1) mice

[1] = dose: 25.0 mg/kg/injection, schedule: Q01DX009 (ip), vehicle: saline
[2] = dose: 50.0 mg/kg/injection, schedule: Q01DX009 (ip), vehicle: saline
[3] = dose: 100.0 mg/kg/injection, schedule: Q01DX009 (ip), vehicle: saline with Tween-80
[4] = dose: 100.0 mg/kg/injection, schedule: Q01DX009 (ip), vehicle: saline
[5] = dose: 200.0 mg/kg/injection, schedule: Q01DX009 (ip), vehicle: saline with Tween-80
[6] = dose: 200.0 mg/kg/injection, schedule: Q01DX009 (ip), vehicle: saline
[7] = dose: 6.25 mg/kg/injection, schedule: Q01DX009 (ip), vehicle: saline
[8] = dose: 12.5 mg/kg/injection, schedule: Q01DX009 (ip), vehicle: saline
[9] = dose: 50.0 mg/kg/injection, schedule: Q01DX009 (ip), vehicle: saline with Tween-80
[10] = dose: 6.25 mg/kg/injection, schedule: Q01DX009 (ip), vehicle: Klucel (hydroxypropylcellulose) (HPC)
[11] = dose: 12.5 mg/kg/injection, schedule: Q01DX009 (ip), vehicle: Klucel (hydroxypropylcellulose) (HPC)
[12] = dose: 25.0 mg/kg/injection, schedule: Q01DX009 (ip), vehicle: Klucel (hydroxypropylcellulose) (HPC)

Nc1ncnc2c1cnn2Cc1ccc(Cl)cc1
T/C [1]: 112 % of control | T/C [2]: 98 % of control | T/C [3]: 158 % of control | T/C [4]: 98 % of control | T/C [5]: 109 % of control

COCCOC
T/C [4]: 100 % of control | T/C [6]: 102 % of control | T/C (dose: 400.0 mg/kg/injection, schedule: Q01DX009 (ip), vehicle: saline): 100 % of control

O=CC(O)C(O)C(O)C(O)C(=O)O.[NH-]C1CCCCC1[NH-].[Pt+2] (centres undefined)
T/C (dose: 0.1 mg/kg/injection, schedule: Q01DX009 (ip), vehicle: suspension in saline): 92 % of control | T/C (dose: 0.2 mg/kg/injection, schedule: Q01DX009 (ip), vehicle: suspension in saline): 92 % of control | T/C (dose: 0.39 mg/kg/injection, schedule: Q01DX009 (ip), vehicle: suspension in saline): 104 % of control | T/C (dose: 0.78 mg/kg/injection, schedule: Q01DX009 (ip), vehicle: suspension in saline): 112 % of control | T/C (dose: 1.56 mg/kg/injection, schedule: Q01DX009 (ip), vehicle: suspension in saline): 108 % of control

O=C1CCCCC1C(=O)C(F)(F)F (centres undefined)
T/C (dose: 50.0 mg/kg/injection, schedule: Q01DX009 (ip), vehicle: saline + Tween-80 + alcohol): 100 % of control

C(CSC1=NCCN1)CSC1=NCCN1
T/C [7]: 93 % of control | T/C [8]: 100 % of control | T/C [1]: 93 % of control | T/C [2]: 93 % of control | T/C [4]: 102 % of control | T/C [6]: 100 % of control

Cc1ccc(Cl)c2ccccc12
T/C [9]: 98 % of control | T/C [3]: 98 % of control | T/C [5]: 107 % of control

CC(=O)c1c(O)c(C)c(O)c2c1OC1=CC(=O)C(C(C)=O)C(=O)C12C (centres undefined)
T/C (dose: 50.0 mg/kg/injection, schedule: Q01DX009 (ip), vehicle: gum acacia): 89 % of control

OCCOCCN1CCN(CCCN2c3ccccc3Sc3ccc(C(F)(F)F)cc32)CC1
T/C (dose: 1.56 mg/kg/injection, schedule: Q01DX009 (ip), vehicle: saline): 110 % of control | T/C (dose: 3.12 mg/kg/injection, schedule: Q01DX009 (ip), vehicle: saline): 105 % of control | T/C [7]: 102 % of control | T/C [8]: 123 % of control

COc1cc2c[n+](C)c3c4cc5c(cc4ccc3c2cc1OC)OCO5 (tested in a mixture with another compound)
T/C (dose: 3.13 mg/kg/injection, schedule: Q01DX009 (ip), vehicle: Klucel (hydroxypropylcellulose) (HPC)): 103 % of control | T/C [10]: 184 % of control | T/C [11]: 120 % of control | T/C [12]: 120 % of control

O=C(NO)c1ccc(O)c(O)c1
T/C (dose: 25.0 mg/kg/injection, schedule: Q01DX009 (ip), vehicle: water): 100 % of control | T/C (dose: 50.0 mg/kg/injection, schedule: Q01DX009 (ip), vehicle: water): 100 % of control | T/C (dose: 100.0 mg/kg/injection, schedule: Q01DX009 (ip), vehicle: water): 100 % of control | T/C (dose: 200.0 mg/kg/injection, schedule: Q01DX009 (ip), vehicle: water): 108 % of control | T/C (dose: 300.0 mg/kg/injection, schedule: Q01DX009 (ip), vehicle: suspension in saline): 117 % of control | T/C (dose: 400.0 mg/kg/injection, schedule: Q01DX009 (ip), vehicle: suspension in saline): 114 % of control | T/C (dose: 500.0 mg/kg/injection, schedule: Q01DX009 (ip), vehicle: suspension in saline): 122 % of control

C[C@H](N)C(=O)N[C@@H]1[C@H]2C(=C(O)C[C@@H](O)[C@@H]2O)C(=O)O[C@]1(C)C(Cl)Cl
T/C (dose: 0.38 mg/kg/injection, schedule: Q01DX009 (ip), vehicle: Klucel (hydroxypropylcellulose) (HPC)): 101 % of control | T/C (dose: 0.75 mg/kg/injection, schedule: Q01DX009 (ip), vehicle: Klucel (hydroxypropylcellulose) (HPC)): 102 % of control | T/C (dose: 1.5 mg/kg/injection, schedule: Q01DX009 (ip), vehicle: Klucel (hydroxypropylcellulose) (HPC)): 108 % of control

CN(Cc1cnc2nc(N)nc(N)c2n1)c1ccc(C(=O)N[C@@H](CCC(=O)O)C(=O)O)cc1
T/C (dose: 0.23 mg/kg/injection, schedule: Q01DX021 (ip), vehicle: sodium bicarbonate): 105 % of control | T/C (dose: 0.25 mg/kg/injection, schedule: Q01DX009 (ip), vehicle: sodium bicarbonate): 103 % of control | T/C (dose: 0.39 mg/kg/injection, schedule: Q01DX009 (ip), vehicle: sodium bicarbonate): 102 % of control | T/C (dose: 0.39 mg/kg/injection, schedule: Q01DX021 (ip), vehicle: sodium bicarbonate): 102 % of control | T/C (dose: 0.5 mg/kg/injection, schedule: Q01DX009 (ip), vehicle: sodium bicarbonate): 121 % of control | T/C (dose: 0.65 mg/kg/injection, schedule: Q01DX009 (ip), vehicle: sodium bicarbonate): 100 % of control | T/C (dose: 0.65 mg/kg/injection, schedule: Q01DX021 (ip), vehicle: sodium bicarbonate): 105 % of control | T/C (dose: 1.0 mg/kg/injection, schedule: Q01DX009 (ip), vehicle: sodium bicarbonate): 107 % of control and 114 % of control and 118 % of control | T/C (dose: 1.08 mg/kg/injection, schedule: Q01DX009 (ip), vehicle: sodium bicarbonate): 95 % of control | T/C (dose: 1.08 mg/kg/injection, schedule: Q01DX021 (ip), vehicle: sodium bicarbonate): 114 % of control | T/C (dose: 1.8 mg/kg/injection, schedule: Q01DX009 (ip), vehicle: sodium bicarbonate): 110 % of control | T/C (dose: 2.0 mg/kg/injection, schedule: Q01DX009 (ip), vehicle: sodium bicarbonate): 96 % of control and 114 % of control | T/C (dose: 2.5 mg/kg/injection, schedule: Q04DX003 (ip), vehicle: sodium bicarbonate): 90 % of control | T/C (dose: 3.0 mg/kg/injection, schedule: Q01DX009 (ip), vehicle: sodium bicarbonate): 114 % of control | T/C (dose: 3.9 mg/kg/injection, schedule: Q04DX006 (ip), vehicle: sodium bicarbonate): 96 % of control | T/C (dose: 4.0 mg/kg/injection, schedule: Q01DX009 (ip), vehicle: sodium bicarbonate): 96 % of control | T/C (dose: 5.0 mg/kg/injection, schedule: Q04DX003 (ip), vehicle: sodium bicarbonate): 103 % of control | T/C (dose: 6.5 mg/kg/injection, schedule: Q04DX003 (ip), vehicle: sodium bicarbonate): 100 % of control and 103 % of control | T/C (dose: 6.5 mg/kg/injection, schedule: Q04DX003 (iv), vehicle: sodium bicarbonate): 107 % of control | T/C (dose: 6.5 mg/kg/injection, schedule: Q04DX006 (ip), vehicle: sodium bicarbonate): 109 % of control | T/C (dose: 10.0 mg/kg/injection, schedule: Q04DX003 (ip), vehicle: sodium bicarbonate): 108 % of control | T/C (dose: 10.8 mg/kg/injection, schedule: Q04DX003 (ip), vehicle: sodium bicarbonate): 119 % of control and 123 % of control | T/C (dose: 10.8 mg/kg/injection, schedule: Q04DX003 (iv), vehicle: sodium bicarbonate): 116 % of control | T/C (dose: 10.8 mg/kg/injection, schedule: Q04DX006 (ip), vehicle: sodium bicarbonate): 120 % of control | T/C (dose: 18.0 mg/kg/injection, schedule: Q04DX003 (iv), vehicle: sodium bicarbonate): 120 % of control | T/C (dose: 20.0 mg/kg/injection, schedule: Q04DX003 (ip), vehicle: sodium bicarbonate): 123 % of control | T/C (dose: 30.0 mg/kg/injection, schedule: Q04DX006 (ip), vehicle: sodium bicarbonate): 95 % of control

CNc1nc(N(C)C)nc(N(C)C)n1
T/C [8]: 96 % of control | T/C [1]: 98 % of control

[N-]=[N+]=C1N=CN=C1c1ncn[nH]1
T/C (dose: 3.12 mg/kg/injection, schedule: Q01DX009 (ip), vehicle: Klucel (hydroxypropylcellulose) (HPC)): 98 % of control | T/C [10]: 100 % of control | T/C [11]: 95 % of control | T/C [12]: 120 % of control | T/C (dose: 50.0 mg/kg/injection, schedule: Q01DX009 (ip), vehicle: Klucel (hydroxypropylcellulose) (HPC)): 97 % of control

C[CH2][Ge]([CH2]C)[CH2]C.C[CH2][Ge]([CH2]C)[CH2]C.C[CH2][Ge]([CH2]C)[O][Ge]([CH2]C)[CH2]C
T/C (dose: 6.25 mg/kg/injection, schedule: Q01DX009 (ip), vehicle: saline with Tween-80): 97 % of control | T/C (dose: 12.5 mg/kg/injection, schedule: Q01DX009 (ip), vehicle: saline with Tween-80): 96 % of control | T/C (dose: 25.0 mg/kg/injection, schedule: Q01DX009 (ip), vehicle: saline with Tween-80): 103 % of control | T/C [9]: 100 % of control

CCCCCC(O)C1C(=O)OC(C)C(O)/C=C/C=C/C=C/C=C\C=C(\C)C(O)CC(O)CC(O)CC(O)CC(O)CC(O)CC1O (centres undefined)
T/C (dose: 3.12 mg/kg/injection, schedule: Q01DX009 (ip), vehicle: distilled water + alcohol): 103 % of control | T/C (dose: 6.25 mg/kg/injection, schedule: Q01DX009 (ip), vehicle: distilled water + alcohol): 96 % of control | T/C (dose: 12.5 mg/kg/injection, schedule: Q01DX009 (ip), vehicle: distilled water + alcohol): 106 % of control | T/C (dose: 25.0 mg/kg/injection, schedule: Q01DX009 (ip), vehicle: distilled water + alcohol): 96 % of control
